The values below come from patent US20090228996A1, “Means and Methods for influencing Interactions Between Dc-Sign and Dc-Sign Ligands” (priority 2006, published 2009).

In assay [1] the target is T1, DC-SIGN on Raji-DC-SIGN cells (Homo sapiens, UniProt Q9NNX6).
T1 construct: expressed in transfected cells; host or cells: Raji cells (Raji-DC-SIGN)
T1 sequence (Q9NNX6 1-404): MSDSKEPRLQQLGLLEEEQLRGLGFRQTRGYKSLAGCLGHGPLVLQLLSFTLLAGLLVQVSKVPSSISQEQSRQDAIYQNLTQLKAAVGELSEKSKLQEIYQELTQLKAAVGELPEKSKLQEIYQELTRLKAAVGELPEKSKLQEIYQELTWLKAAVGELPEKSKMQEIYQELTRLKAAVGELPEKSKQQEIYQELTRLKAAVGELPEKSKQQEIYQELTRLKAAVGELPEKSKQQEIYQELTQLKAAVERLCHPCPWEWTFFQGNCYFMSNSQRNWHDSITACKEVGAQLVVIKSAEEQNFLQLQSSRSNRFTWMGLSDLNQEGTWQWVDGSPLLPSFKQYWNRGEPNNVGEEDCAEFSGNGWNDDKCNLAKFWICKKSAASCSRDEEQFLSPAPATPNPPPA
As to the kind of experiment: gp120 bead adhesion assay, Raji-DC-SIGN cells. In kind it is cell-based. Particulars: for binding of gp120 beads to Raji-DC-SIGN: cells pre-incubated 30 min, human milk 1/20, vs control. On the procedure:
(§1) gp120 bead adhesion assay. Beads were prepared as previously described (Geijtenbeek et al, 2000 a), in short, streptavidin was covalently coupled to Carboxylate-modified TransFluoSpheres (488/645 nm, 1.0 μm; molecular probes). The steptavidin-beads were incubated with biotinylated F(ab′)2 fragment goat-anti-human IgG (6 μg/ml; Jackson Immunoresearch) and subsequently incubated overnight with gp120-Fc chimera. Fifty thousand cells, Raji-DC-SIGN cells, immature DCs or Raji-L-SIGN cells, were pre-incubated with human milk or milk compounds, AZN-D1 (Geijtenbeek et al, 2000 a), AZN-D2 (Halary et al, 2002), EGTA or mannan for 30 minutes at RT. The ligand-coated beads (20 beads/cell) were added to the pre-incubated cells and incubated for 30 minutes at 37° C. after which the cells were washed with TSM containing 0.5% BSA. After washing, the cells were resuspended in 100 μl TSM-BSA buffer and the adhesion was measured by flow cytometry (BD Biosciences).
(§2) gp120 bead adhesion assay. Beads were prepared as previously described (Geijtenbeek et al, 2000 a), in short, streptavidin was covalently coupled to Carboxylate-modified TransFluoSpheres (488/645 nm, 1.0 μm; molecular probes). The steptavidin-beads were incubated with biotinylated F(ab′)2 fragment goat-anti-human IgG (6 μg/ml; Jackson Immunoresearch) and subsequently incubated overnight with the gp120-Fc chimera. Fifty thousand cells, Raji-DC-SIGN cells or iDCs were pre-incubated with human milk, AZN-D1 (Geijtenbeek et al, 2000 a), AZN-D2 (Halary et al, 2002), EGTA or mannan for 30 minutes at RT. The ligand-coated beads (20 beads/cell) were added to the pre-incubated cells and incubated for 30 minutes at 37° C. after which the cells were washed with TSM (20 mM Tris, 150 mM NaCl, 1 mM CaCl2, 2 mM MgCl2) containing 0.5% BSA. After washing, the cells were resuspended in 100 μl TSM-BSA buffer and the adhesion was measured by flow cytometry (BD Biosciences).

The target in assay [2] is T2, DC-SIGN on iDCs (Homo sapiens, UniProt Q9NNX6).
T2 construct: endogenous in cells
T2 sequence (Q9NNX6 1-404): T1 sequence (Q9NNX6 1-404)
Briefly: gp120 bead adhesion assay, immature DCs. Particulars: for binding of gp120 beads to iDC: cells pre-incubated 30 min, human milk 1/20, vs control. It counts as cell-based. On the procedure:
as §1, §2

The target of assay [3] is T3, DC-SIGN-Fc (Homo sapiens, UniProt Q9NNX6).
T3 construct: the extracellular portion of DC-SIGN (amino acids 64 to 404)
T3 sequence (Q9NNX6 64-404): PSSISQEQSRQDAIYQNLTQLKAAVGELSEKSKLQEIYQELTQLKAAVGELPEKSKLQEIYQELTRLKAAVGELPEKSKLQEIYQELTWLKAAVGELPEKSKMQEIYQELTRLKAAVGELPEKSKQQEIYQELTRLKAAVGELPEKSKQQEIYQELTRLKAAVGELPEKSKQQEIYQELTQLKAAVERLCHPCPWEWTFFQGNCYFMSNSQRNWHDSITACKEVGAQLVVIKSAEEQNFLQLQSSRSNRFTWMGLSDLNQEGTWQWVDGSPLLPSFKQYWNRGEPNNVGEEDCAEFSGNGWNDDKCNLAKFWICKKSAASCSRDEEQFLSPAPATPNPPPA
As to the kind of experiment: DC-SIGN-Fc binding ELISA. On the procedure:
DC-SIGN-Fc binding ELISA. The DC-SIGN-Fc chimera contained the extracellular portion of DC-SIGN (amino acids 64 to 404) fused at the C-terminus to a human immunoglobulin (Ig) G1 Fc fragment and has been previously described (Geijtenbeek et al, 2002). Human milk or human milk compounds were diluted in 0.2M NaHCO3, coated on ELISA plates (maxisorb plate; Nunc) and incubated overnight at 4° C. or 2 hours at 37° C. This was followed by blocking with TSM containing 1% BSA for 30 minutes at 37° C. before addition of soluble DC-SIGN-Fc (5 μg/ml) for 2 hours at RT, the binding was determined by incubation of a peroxidase labeled anti-IgG1 antibody for 30 minutes at RT. DC-SIGN-Fc binding specificity was determined by pre-incubation of the DC-SIGN-FC with either 50 μg/ml DC-SIGN specific mouse antibody AZN-D1 (Geijtenbeek et al, 2000 a) or 10 mM EGTA. Single-cycle-replication transmission assay. The assay was performed as previously described (Groot et al, 2005). In short mDCs and iDCs were incubated in a 96-well-plate (35−50×10^3 DC/well) with human milk for 30 minutes at 37° C. before addition of the virus (5 ng p24/well), which was incubated for 2 hours at 37° C. The DCs were washed twice with PBS before addition of 50×10^3 LuSIV cells. After 24 hours, LuSIV cells were harvested and resuspended in 50 μl lysis buffer (25 mM Tris-Cl 7.8, 2 mM DTT, 2 mM CDTA, 10% glycerol, 1% Triton X100). The cells were then incubated for 45 minutes at room temperature while shaking, followed by 10 minutes centrifugation at 3200×g. […]
DC-SIGN-Fc binding ELISA. […] This was followed by blocking with TSM containing 1% BSA for 30 minutes at 37° C. before addition of soluble DC-SIGN-Fc (5 μg/ml) for 2 hours at RT, the binding was determined by incubation of a peroxidase labeled anti-IgG1 antibody for 30 minutes at RT. DC-SIGN-Fc binding specificity was determined by pre-incubation of the DC-SIGN-Fc with either 50 μg/ml DC-SIGN specific mouse antibody AZN-D1 (Geijtenbeek et al, 2000 a) or 10 mM EGTA.

Assay [4] concerns DC-SIGN mediated transfer of HIV-1 by Raji-DC-SIGN cells to CD4+ T-lymphocytes. As to the kind of experiment: DC-SIGN mediated HIV-1 transfer assay (Raji-DC-SIGN transfer culture assay). It counts as cell-based. Particulars: Le^x containing compounds, all at 10 μg/ml. On the procedure:
DC-SIGN mediated HIV-1 transfer assay. The Raji and Raji-DC-SIGN cells were plated at a concentration of 2×10^4 cells/well in a 96 well format. Dilutions of human milk or human milk compounds were made in PBS containing 10% FCS and spiked with 3.7log TCID50/ml of the appropriate virus before addition to the Raji-DC-SIGN cells. As controls PBS containing 10% FCS was spiked with the same TCID50/ml of the corresponding virus before addition to Raji or Raji-DC-SIGN cells. After incubation the culture was washed with PBS before addition of CD4^+ enriched T-lymphocytes at a concentration of 1×10^5 cells/well with p24 determined on day 7. DC-SIGN specific antibody binding after exposure to human milk. […] The cells were washed and resuspended in 100 μl TSM containing 0.5% bovine serum albumin, (BSA Fraction V, Fatty Acid-Free) (Calbiochem) and the adhesion was measured by flow cytometry (BD Biosciences).
DC-SIGN mediated HIV-1 transfer assay. […] After a two hour incubation the culture was washed with PBS before addition of CD4^+ enriched T-lymphocytes at a concentration of 1×10^5 cells/well with p24 values determined on day 7.

Assay [5] addresses T4, DC-SIGN (Homo sapiens, UniProt Q9NNX6).
T4 sequence (Q9NNX6 1-404): T1 sequence (Q9NNX6 1-404)
As to the kind of experiment: gp120 bead adhesion assay, cells not given. In kind it is cell-based. Conditions: Le^x containing compounds; data not shown. On the procedure:
as §1

The target in assay [6] is T4, DC-SIGN. Conditions: literature; cited from earlier work.
[7] abbreviates: Example 2, protein fraction from milk S3 (C18 column) and DC-SIGN controls.
The mark [8] stands for this setting: major milk proteins at 1/20 dilution of physiological concentration in human milk.

Consider `O=C(O)CN(CCOCCOCCN(CC(=O)O)CC(=O)O)CC(=O)O` [EGTA, reference compound], for which the “binding of gp120 beads to Raji-DC-SIGN” value in assay [1] was “block binding of gp120 beads to the DC-SIGN expressing cells to the same extent as human milk”. Besides, the “gp120 binding to iDCs” value in assay [2] (setting [7]) is recorded as “demonstrated inhibition”. Further, the “binding of gp120 beads to iDC” value in assay [2] is on record as “block binding of gp120 beads to the DC-SIGN expressing cells to the same extent as human milk”. Further, the “DC-SIGN-Fc binding to human milk after pre-incubation of DC-SIGN-Fc” value in assay [3] (50 μg/ml AZN-D1 or 10 mM EGTA, p<0.01) is “completely abrogated binding”.
For the molecule “Le^x-BSA: Lewis X-BSA, 14 atom spacer (Calbiochem)”, the “DC-SIGN mediated HIV-1 transfer” value in assay [4] is recorded as “able to inhibit DC-SIGN mediated HIV-1 transfer”. Besides, the “interaction between DC-SIGN and gp120” value in assay [5] is “none of the tested compounds were able to block the interaction”. Also, the “binding to DC-SIGN-Fc” value in assay [3] (Le^x-BSA or BSA control coated) is reported as “demonstrates binding to DC-SIGN-Fc”.
In the case of “human lysozyme: major human milk protein (Sigma) [reference compound]”, the “gp120 binding to Raji-DC-SIGN” value in assay [1] (setting [8]) was “None of the tested human milk compounds could inhibit gp120 binding”. Moreover, in assay [2] (setting [8]), the “gp120 binding to iDCs” value is listed as “None of the tested human milk compounds could inhibit gp120 binding”. Also, in assay [3] (setting [8]), the “DC-SIGN-Fc binding to coated milk compound” value was “showed no binding”.
As for “lacto-N-fucopentaose III [LNFP III, reference compound]”, the “DC-SIGN mediated HIV-1 transfer” value in assay [4] is “not able to prevent HIV-1 transfer”. The “interaction between DC-SIGN and gp120” value in assay [5] is on record as “none of the tested compounds were able to block the interaction”. Besides, the “previously shown DC-SIGN binding” value in assay [6] was “bind DC-SIGN”.
Regarding mannan, the “binding of gp120 beads to Raji-DC-SIGN” value in assay [1] is “block binding of gp120 beads to the DC-SIGN expressing cells to the same extent as human milk”. Also, in assay [2] (setting [7]), the “gp120 binding to iDCs” value is “demonstrated inhibition”. Besides, in assay [2], the “binding of gp120 beads to iDC” value is reported as “block binding of gp120 beads to the DC-SIGN expressing cells to the same extent as human milk”.
